The target in this assay is T1, EGFR (ErbB1) L861Q (Homo sapiens, UniProt P00533, L861Q).
T1 construct: purchased Thermo Fisher Scientific (Life Technologies) SelectScreen
The experiment in a line: SelectScreen Z'LYTE. The assay is classed as biochemical. The gist of the method:
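SelectScreen broad panel; activity (Z'LYTE, Adapta) plus binding formats. ATP: Km app for CSF1R Z'LYTE; 10 for CAMK1 Adapta. Readout = % per kinase.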

T1 sequence (P00533 25-1210 L861Q): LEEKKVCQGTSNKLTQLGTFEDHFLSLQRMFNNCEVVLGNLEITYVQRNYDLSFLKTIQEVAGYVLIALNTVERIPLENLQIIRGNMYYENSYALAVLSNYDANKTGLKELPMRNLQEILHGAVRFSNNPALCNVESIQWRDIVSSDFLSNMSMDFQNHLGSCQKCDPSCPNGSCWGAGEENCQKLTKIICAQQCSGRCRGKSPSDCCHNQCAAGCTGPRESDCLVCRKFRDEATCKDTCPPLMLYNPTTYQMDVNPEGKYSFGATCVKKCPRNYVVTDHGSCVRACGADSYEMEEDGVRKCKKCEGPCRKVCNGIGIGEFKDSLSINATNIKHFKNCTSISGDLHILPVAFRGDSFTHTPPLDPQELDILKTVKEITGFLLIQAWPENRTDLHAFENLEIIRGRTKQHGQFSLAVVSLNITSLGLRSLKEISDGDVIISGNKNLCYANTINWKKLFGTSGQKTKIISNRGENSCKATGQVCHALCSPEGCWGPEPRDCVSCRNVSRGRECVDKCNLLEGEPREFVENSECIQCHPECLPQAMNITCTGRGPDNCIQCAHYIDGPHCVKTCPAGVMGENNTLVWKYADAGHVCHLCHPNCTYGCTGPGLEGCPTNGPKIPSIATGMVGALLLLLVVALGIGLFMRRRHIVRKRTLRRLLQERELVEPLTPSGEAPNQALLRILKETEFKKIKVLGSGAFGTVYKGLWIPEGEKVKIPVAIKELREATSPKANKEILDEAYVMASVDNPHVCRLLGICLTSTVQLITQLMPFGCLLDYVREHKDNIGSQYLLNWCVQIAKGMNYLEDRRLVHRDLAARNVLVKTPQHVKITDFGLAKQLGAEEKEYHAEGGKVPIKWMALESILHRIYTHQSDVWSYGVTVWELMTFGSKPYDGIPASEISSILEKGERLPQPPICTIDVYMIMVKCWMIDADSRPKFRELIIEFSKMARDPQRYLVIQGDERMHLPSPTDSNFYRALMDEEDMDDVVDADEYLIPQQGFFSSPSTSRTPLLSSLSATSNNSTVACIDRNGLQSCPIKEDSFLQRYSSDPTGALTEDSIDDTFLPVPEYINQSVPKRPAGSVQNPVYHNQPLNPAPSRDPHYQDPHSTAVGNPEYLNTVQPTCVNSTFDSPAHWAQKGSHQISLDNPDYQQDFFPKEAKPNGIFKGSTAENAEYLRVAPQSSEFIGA

The inhibition is the relative decrease from the control value, in per cent. A higher inhibition goes with a response far below the control. `CN(C(=O)CN1CCOCC1)c1ccc2sc3c(-c4cccc5c(=O)cc(N6CC7CCC(C6)O7)oc45)cccc3c2c1` [NU5455] yielded an inhibition at 1 µM of 2.2%.
